A short description of one series: DHM solubility in water. In kind it is physicochemical.
A further series in a line: physchem. As to conditions: 25° C.
The conditions of series [1]: at 25° C.; background; cited from earlier work.
The conditions of series [2]: in words; cited from earlier work.
For series [3] the following is noted: cited from earlier work.

≈ marks a conversion by molar mass, not a printed value. Like-named read-outs stand apart in the source and are kept apart here.

As usually defined, the solubility is the dissolved amount per volume that the medium holds. Take `O=C1c2c(O)cc(O)cc2O[C@H](c2cc(O)c(O)c(O)c2)[C@H]1O` [DHM, (2R,3R)-3,5,7-trihydroxy-2-(3,4,5-trihydroxyphenyl)-2,3-dihydrochromen-4-one]: the solubility in “DHM solubility in water” (100° C. (hot water)) was 15500 µg/mL (≈ 48400 µM); in “DHM solubility in water” (water, 25 °C, water, 25° C. (room temperature), read-out: Solubility), 700 µg/mL (≈ 2190 µM); in the series “DHM solubility in water” (water, 100 °C, water, 100° C. (hot water), read-out: Solubility) it was 16000 µg/mL (≈ 50000 µM); in the series “physchem” it was 700 µg/mL (≈ 2190 µM); in series [1] it was 200 µg/mL (≈ 625 µM).

Regarding `OC[C@H]1O[C@H](O[C@]2(CCl)O[C@H](CCl)[C@@H](O)[C@@H]2O)[C@H](O)[C@@H](O)[C@H]1Cl` [sucralose], the solubility in water result in series [2] is given as “freely soluble”.

Turning to `OC[C@H]1O[C@@H]2O[C@H]3[C@H](O)[C@@H](O)[C@@H](O[C@H]4[C@H](O)[C@@H](O)[C@@H](O[C@H]5[C@H](O)[C@@H](O)[C@@H](O[C@H]6[C@H](O)[C@@H](O)[C@@H](O[C@H]7[C@H](O)[C@@H](O)[C@@H](O[C@H]1[C@H](O)[C@H]2O)O[C@@H]7CO)O[C@@H]6CO)O[C@@H]5CO)O[C@@H]4CO)O[C@@H]3CO` [α-Cyclodextrin, α-cyclodextrin], in series [3], the “pKa value (25° C.)” value is on record as 12.331.

Regarding `OC[C@H]1O[C@@H]2O[C@H]3[C@H](O)[C@@H](O)[C@@H](O[C@H]4[C@H](O)[C@@H](O)[C@@H](O[C@H]5[C@H](O)[C@@H](O)[C@@H](O[C@H]6[C@H](O)[C@@H](O)[C@@H](O[C@H]7[C@H](O)[C@@H](O)[C@@H](O[C@H]8[C@H](O)[C@@H](O)[C@@H](O[C@H]1[C@H](O)[C@H]2O)O[C@@H]8CO)O[C@@H]7CO)O[C@@H]6CO)O[C@@H]5CO)O[C@@H]4CO)O[C@@H]3CO` [β-Cyclodextrin, β-cyclodextrin], the “pKa value (25° C.)” value in series [3] is given as 12.202.

Source of the values: patent US20200246485A1, “METHOD FOR GENERATING A DIHYDROMYRICETIN (DHM) FORMULATION” (82 LABS INC, priority 2019, published 2020).
